In ChEMBL document CHEMBL1201862, “PubChem BioAssay data set” (2004):
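96-well plates; 48 h exposure; 5 concentrations. Endpoints by linear interpolation between flanking doses. Not reached: highest tested concentration assigned. Here, GI50 denotes the concentration required for 50% inhibition of growth.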 Calls of active or inactive are those of the source. No stated cut-off is given here; in the data, active = GI50 up to about 1.1 µM and inactive = higher.

Assays:
Experiment in all cases: growth of human tumour cells (NCI), 48 h
786-0 = test system: 786-0
A498 = test system: A498
A549 = test system: A549
ACHN = test system: ACHN
BT-549 = test system: BT-549
CAKI-1 = test system: CAKI-1
COLO 205 = test system: COLO 205
DU-145 = test system: DU-145
EKVX = test system: EKVX
HCC 2998 = test system: HCC 2998
HCT-116 = test system: HCT-116
HCT-15 = test system: HCT-15
HL-60 = test system: HL-60
HOP-62 = test system: HOP-62
HOP-92 = test system: HOP-92
HT-29 = test system: HT-29
Hs-578T = test system: Hs-578T
IGROV-1 = test system: IGROV-1
K562 = test system: K562
KM12 = test system: KM12
LOX IMVI = test system: LOX IMVI
M14 = test system: M14
MCF7 = test system: MCF7
MDA-MB-231 = test system: MDA-MB-231
MDA-MB-435 = test system: MDA-MB-435
MDA-N = test system: MDA-N
MOLT-4 = test system: MOLT-4
Malme-3M = test system: Malme-3M
NCI-H226 = test system: NCI-H226
NCI-H23 = test system: NCI-H23
NCI-H460 = test system: NCI-H460
NCI-H522 = test system: NCI-H522
NCI/ADR-RES = test system: NCI/ADR-RES
OVCAR-3 = test system: OVCAR-3
OVCAR-4 = test system: OVCAR-4
OVCAR-5 = test system: OVCAR-5
OVCAR-8 = test system: OVCAR-8
PC-3 = test system: PC-3
RPMI-8226 = test system: RPMI-8226
RXF 393 = test system: RXF 393
SF-268 = test system: SF-268
SF-295 = test system: SF-295
SF-539 = test system: SF-539
SK-MEL-28 = test system: SK-MEL-28
SK-MEL-2 = test system: SK-MEL-2
SK-MEL-5 = test system: SK-MEL-5
SK-OV-3 = test system: SK-OV-3
SN12C = test system: SN12C
SNB-19 = test system: SNB-19
SNB-75 = test system: SNB-75
SR = test system: SR
SW-620 = test system: SW-620
T47D = test system: T47D
TK-10 = test system: TK-10
U-251 = test system: U-251
UACC-257 = test system: UACC-257
UACC-62 = test system: UACC-62
UO-31 = test system: UO-31
CCRF-CEM = test system: CCRF-CEM

In the case of `C=CC(OC(C)=O)c1ccc(OC(C)=O)cc1` (centres undefined), the GI50 (786-0) is reported as 1.56 µM (inactive), the GI50 (A498) is reported as 12 µM (inactive) and the GI50 (A549) is reported as 19.8 µM (inactive). For the same compound, the GI50 (ACHN) was 2.54 µM (inactive), the GI50 (BT-549) was 8.93 µM (inactive) and the GI50 (CAKI-1) was 4.88 µM (inactive). The GI50 (COLO 205) was 3.85 µM (inactive), the GI50 (DU-145) was 10.4 µM (inactive) and the GI50 (EKVX) was 13.8 µM (inactive). The GI50 (HCC 2998) was 7.01 µM (inactive), the GI50 (HCT-116) was 7.05 µM (inactive) and the GI50 (HCT-15) was 8.24 µM. The GI50 (HL-60) was 3.79 µM (inactive), the GI50 (HOP-62) was 3.82 µM (inactive) and the GI50 (HOP-92) was 8.47 µM (inactive). The GI50 (HT-29) was 4.8 µM (inactive), the GI50 (Hs-578T) was 2.37 µM (inactive) and the GI50 (IGROV-1) was 15.7 µM (inactive). The GI50 (K562) was 20 µM (inactive), the GI50 (KM12) was 5.57 µM (inactive) and the GI50 (LOX IMVI) was 2.88 µM (inactive). For the same compound, the GI50 (M14) was 10.5 µM (inactive), the GI50 (MCF7) was 11.4 µM (inactive) and the GI50 (MDA-MB-231) was 3.3 µM (inactive). The GI50 (MDA-MB-435) was 3.45 µM (inactive), the GI50 (MDA-N) was 4.95 µM (inactive) and the GI50 (MOLT-4) was 3.31 µM (inactive). For the same compound, the GI50 (Malme-3M) was 2.92 µM (inactive), the GI50 (NCI-H226) was 15.7 µM (inactive) and the GI50 (NCI-H23) was 17 µM (inactive). The GI50 (NCI-H460) was 17.1 µM (inactive), the GI50 (NCI-H522) was 1.91 µM (inactive) and the GI50 (NCI/ADR-RES) was 7.01 µM (inactive). The GI50 (OVCAR-3) was 6.11 µM (inactive), the GI50 (OVCAR-4) was 17.2 µM (inactive) and the GI50 (OVCAR-5) was 9.27 µM (inactive). For the same compound, the GI50 (OVCAR-8) was 3.94 µM (inactive), the GI50 (PC-3) was 2.56 µM (inactive) and the GI50 (RPMI-8226) was 2.25 µM (inactive). The GI50 (RXF 393) was 14 µM (inactive), the GI50 (SF-268) was 4.92 µM (inactive) and the GI50 (SF-295) was 7.62 µM (inactive). For the same compound, the GI50 (SF-539) was 2.08 µM (inactive), the GI50 (SK-MEL-28) was 9.27 µM (inactive) and the GI50 (SK-MEL-2) was 4.97 µM (inactive). For the same compound, the GI50 (SK-MEL-5) was 15 µM (inactive), the GI50 (SK-OV-3) was 17.5 µM (inactive) and the GI50 (SN12C) was 2.1 µM (inactive). For the same compound, the GI50 (SNB-19) was 13.9 µM (inactive), the GI50 (SNB-75) was 3.88 µM (inactive) and the GI50 (SR) was 2.69 µM (inactive). The GI50 (SW-620) was 2.21 µM (inactive), the GI50 (T47D) was 2.72 µM (inactive) and the GI50 (TK-10) was 2.17 µM (inactive). For the same compound, the GI50 (U-251) was 2.3 µM (inactive), the GI50 (UACC-257) was 6.04 µM (inactive) and the GI50 (UACC-62) was 14.8 µM (inactive). For the same compound, the GI50 (UO-31) was 2.1 µM (inactive).
`COC(=O)c1ccccc1/C=C1/Cc2cccc(C)c2C1=O` was tested, and the GI50 (786-0) was 36.2 µM (inactive), the GI50 (A498) was > 100 µM (inactive) and the GI50 (A549) was > 100 µM (inactive). The GI50 (ACHN) was 57.5 µM (inactive), the GI50 (BT-549) was 93.8 µM (inactive) and the GI50 (CAKI-1) was 69.3 µM (inactive). The GI50 (CCRF-CEM) was > 100 µM (inactive), the GI50 (COLO 205) was > 100 µM (inactive) and the GI50 (DU-145) was > 100 µM (inactive). For the same compound, the GI50 (EKVX) was > 100 µM (inactive), the GI50 (HCC 2998) was > 100 µM (inactive) and the GI50 (HCT-116) was > 100 µM (inactive). The GI50 (HCT-15) was over 100 µM, the GI50 (HL-60) was > 100 µM (inactive) and the GI50 (HOP-62) was 31 µM (inactive). For the same compound, the GI50 (HOP-92) was 31.8 µM (inactive), the GI50 (HT-29) was > 100 µM (inactive) and the GI50 (Hs-578T) was 39.7 µM (inactive). The GI50 (IGROV-1) was > 100 µM (inactive), the GI50 (K562) was > 100 µM (inactive) and the GI50 (KM12) was > 100 µM (inactive). For the same compound, the GI50 (LOX IMVI) was > 100 µM (inactive), the GI50 (MCF7) was > 100 µM (inactive) and the GI50 (MDA-MB-231) was > 100 µM (inactive). For the same compound, the GI50 (MDA-MB-435) was > 100 µM (inactive), the GI50 (MDA-N) was > 100 µM (inactive) and the GI50 (MOLT-4) was > 100 µM (inactive). For the same compound, the GI50 (Malme-3M) was > 100 µM (inactive), the GI50 (NCI-H226) was > 100 µM (inactive) and the GI50 (NCI-H23) was > 100 µM (inactive). For the same compound, the GI50 (NCI-H460) was > 100 µM (inactive), the GI50 (NCI-H522) was > 100 µM (inactive) and the GI50 (NCI/ADR-RES) was > 100 µM (inactive). For the same compound, the GI50 (OVCAR-3) was > 100 µM (inactive), the GI50 (OVCAR-4) was > 100 µM (inactive) and the GI50 (OVCAR-5) was > 100 µM (inactive). For the same compound, the GI50 (OVCAR-8) was > 100 µM (inactive), the GI50 (PC-3) was > 100 µM (inactive) and the GI50 (RPMI-8226) was > 100 µM (inactive). The GI50 (RXF 393) was 41.2 µM (inactive), the GI50 (SF-268) was 73.1 µM (inactive) and the GI50 (SF-295) was 42 µM (inactive). For the same compound, the GI50 (SF-539) was > 100 µM (inactive), the GI50 (SK-MEL-28) was > 100 µM (inactive) and the GI50 (SK-MEL-5) was 32.8 µM (inactive). The GI50 (SK-OV-3) was > 100 µM (inactive), the GI50 (SN12C) was > 100 µM (inactive) and the GI50 (SNB-75) was 35.4 µM (inactive). For the same compound, the GI50 (SR) was > 100 µM (inactive), the GI50 (SW-620) was > 100 µM (inactive) and the GI50 (T47D) was 42.5 µM (inactive). For the same compound, the GI50 (TK-10) was > 100 µM (inactive), the GI50 (U-251) was 31 µM (inactive) and the GI50 (UACC-257) was > 100 µM (inactive). For the same compound, the GI50 (UACC-62) was 52.2 µM (inactive) and the GI50 (UO-31) was > 100 µM (inactive).
